Laboratory results reported in US5556859A, “N-(4-pyrimidinyl)amide pesticides” (DowElanco, priority 1994, dated 1996).

How the values were obtained:
[1] = test system: tobacco budworm (Heliothis virescens); test: Activity against tobacco budworm (TBW); type: in vivo; conditions: 144 h, read-out: percent mortality, TBW
Procedure: In conducting evaluations of insecticidal activity, each test compound was formulated as a 400 ppm solution, and this solution was then diluted with water to give lesser concentrations. The 400 ppm solution was prepared by combining 19.2 mL of 0.05% solution of Tween 20 (polyoxyethylene (20) sorbitan monolaurate) in water with a solution of 8 mg of the compound in 0.8 mL of acetone/EtOH (9/1).
Activity against tobacco budworm (Heliothis virescens) was evaluated as follows. A general purpose lepidoptera artificial diet was diluted to half strength with a 5% non nutritive agar. 8 mL of this diet material was dispensed into each one ounce diet cup. One hour prior to treatment 18 to 20 eggs were dispensed onto the diet surface. The cups were then sprayed with formulated material through a flat-fan nozzle. The test was run using concentrations of 400 ppm and 50 ppm. Treated cups were air dried prior to sealing with plastic caps. The cups were held for 6 days at room temperature. Activity was then rated based on the total number of live and dead larvae, and on the size of live larvae.

[2] = test system: beet armyworm (Spodoptera exiqua); test: whole plant or invertebrate; conditions: 144 h, read-out: percent mortality, BAW
[3] = test system: cotton aphid (Aphis gossypii); test: whole plant or invertebrate; conditions: 72 h, read-out: percent mortality, CA
[4] = test system: peanut root knot nematode (Meloidogyne arenaria); test: whole plant or invertebrate; conditions: in Arachis hypogaea, read-out: percent mortality, RKN
[5] = test system: Southern corn rootworm (Diabrotica undecimpuctata howardi Barber); test: whole plant or invertebrate; conditions: in Zea mays, soil, read-out: percent mortality, SCRW
[6] = test system: two spotted spider mite (Tetranychus urticae); test: whole plant or invertebrate; conditions: 72 h, read-out: percent mortality, TSSM
[7] = test system: German cockroach (Blattella germanicus); test: whole plant or invertebrate; conditions: 240 h, read-out: percent mortality, GECR

CCc1nccc(NC(=O)Cc2ccc(Oc3ccc(Cl)cc3)cc2)n1 [Compound 17, 4-(4-chlorophenoxy)phenyl-N-(2-ethyl-4-pyrimidinyl)acetamide]
mortality at 400 ppm [1]: 100% | mortality at 400 ppm [2]: 100% | mortality at 400 ppm [3]: 100% | mortality at 400 ppm [4]: 100% | mortality at 24 µg/g [5]: 100% | mortality at 400 ppm [6]: 100% | mortality at 400 ppm [7]: 100%

CCCc1nccc(NC(=O)Cc2ccc(OCC(F)(F)F)cc2)n1 [Compound 18, 4-(2,2,2-trifluroethoxy)phenyl-N-(2-propyl-4-pyrimidinyl)acetamide]
mortality at 400 ppm [1]: 80% | mortality at 400 ppm [2]: 100% | mortality at 400 ppm [3]: 100% | mortality at 400 ppm [4]: 100% | mortality at 24 µg/g [5]: 0% | mortality at 400 ppm [6]: 80% | mortality at 400 ppm [7]: 20%

CCCc1nccc(NC(=O)Cc2ccc(Oc3ccc(F)cc3)cc2)n1 [Compound 19, 4-(4-fluorophenoxy)phenyl-N-(2-propyl-4-pyrimidinyl)acetamide]
mortality at 400 ppm [1]: 100% | mortality at 400 ppm [2]: 100% | mortality at 400 ppm [3]: 100% | mortality at 400 ppm [4]: 100% | mortality at 24 µg/g [5]: 100% | mortality at 400 ppm [6]: 100% | mortality at 400 ppm [7]: 100%

CCCCc1nccc(NC(=O)Cc2ccc(OCC(F)(F)F)cc2)n1 [Compound 20, 4-(2,2,2-trifluroethoxy)phenyl-N-(2-butyl-4-pyrimidinyl)acetamide]
mortality at 400 ppm [1]: 0% | mortality at 400 ppm [2]: 100% | mortality at 400 ppm [3]: 0% | mortality at 400 ppm [4]: 80% | mortality at 24 µg/g [5]: 100% | mortality at 400 ppm [6]: 0% | mortality at 400 ppm [7]: 0%

CCCCc1nccc(NC(=O)Cc2ccc(Oc3ccc(F)cc3)cc2)n1 [Compound 21, 4-(4-fluorophenoxy)phenyl-N-(2-butyl-4-pyrimidinyl)acetamide]
mortality at 400 ppm [1]: 100% | mortality at 400 ppm [2]: 100% | mortality at 400 ppm [3]: 100% | mortality at 400 ppm [4]: 90% | mortality at 24 µg/g [5]: 0% | mortality at 400 ppm [6]: 100% | mortality at 400 ppm [7]: 100%

O=C(Cc1ccc(OCC(F)(F)F)cc1)Nc1ccnc(C2CCC2)n1 [Compound 22, 4-(2,2,2-trifluroethoxy)phenyl-N-(2-cyclobutyl-4-pyrimidinyl)acetamide]
mortality at 400 ppm [1]: 0% | mortality at 400 ppm [2]: 100% | mortality at 400 ppm [3]: 100% | mortality at 400 ppm [4]: 100% | mortality at 24 µg/g [5]: 100% | mortality at 400 ppm [6]: 100% | mortality at 400 ppm [7]: 80%

O=C(Cc1ccc(Oc2ccc(F)cc2)cc1)Nc1ccnc(C2CCC2)n1 [Compound 23, 4-(4-fluorophenoxy)phenyl-N-(2-cyclobutyl-4-pyrimidinyl)acetamide]
mortality at 400 ppm [1]: 100% | mortality at 400 ppm [2]: 100% | mortality at 400 ppm [3]: 100% | mortality at 400 ppm [4]: 100% | mortality at 24 µg/g [5]: 0% | mortality at 400 ppm [6]: 100% | mortality at 400 ppm [7]: 100%

CC(C)(C)c1nccc(NC(=O)Cc2ccc(OCC(F)(F)F)cc2)n1 [Compound 24, 4-(2,2,2-trifluroethoxy)phenyl-N-(2-(1,1-dimethylethyl)-4-pyrimidinyl)acetamide]
mortality at 400 ppm [1]: 100% | mortality at 400 ppm [2]: 100% | mortality at 400 ppm [3]: 90% | mortality at 400 ppm [4]: 0% | mortality at 24 µg/g [5]: 100% | mortality at 400 ppm [6]: 60% | mortality at 400 ppm [7]: 0%

CC(C)(C)c1nccc(NC(=O)Cc2ccc(Oc3ccc(F)cc3)cc2)n1 [Compound 25, 4-(4-fluorophenoxy)phenyl-N-(2-(1,1-dimethylethyl)-4-pyrimidinyl)acetamide]
mortality at 400 ppm [1]: 100% | mortality at 400 ppm [2]: 100% | mortality at 400 ppm [3]: 100% | mortality at 400 ppm [4]: 100% | mortality at 24 µg/g [5]: 100% | mortality at 400 ppm [6]: 100% | mortality at 400 ppm [7]: 100%

C=C(C)c1nccc(NC(=O)Cc2ccc(Oc3ccc(F)cc3)cc2)n1 [Compound 27, 4-(4-fluorophenoxy)phenyl-N-(2-(1-methylethenyl)-4-pyrimidinyl)acetamide]
mortality at 400 ppm [1]: 0% | mortality at 400 ppm [2]: 0% | mortality at 400 ppm [3]: 100% | mortality at 400 ppm [4]: 0% | mortality at 24 µg/g [5]: 0% | mortality at 400 ppm [6]: 0% | mortality at 400 ppm [7]: 0%

O=C(Cc1ccc(OCC(F)(F)F)cc1)Nc1ccncn1 [Compound 28, 4-(2,2,2-trifluroethoxy)phenyl-N-(4-pyrimidinyl)acetamide]
mortality at 400 ppm [1]: 0% | mortality at 400 ppm [2]: 0% | mortality at 400 ppm [3]: 100% | mortality at 400 ppm [4]: 0% | mortality at 24 µg/g [5]: 0% | mortality at 400 ppm [6]: 0% | mortality at 400 ppm [7]: 0%

O=C(Cc1ccc(Oc2ccc(Cl)cc2)cc1)Nc1ccnc(C2CC2)n1 [Compound 29, 4-(4-chlorophenoxy)phenyl-N-(2-cyclopropyl-4-pyrimidinyl)acetamide]
mortality at 400 ppm [1]: 100% | mortality at 400 ppm [2]: 100% | mortality at 400 ppm [3]: 100% | mortality at 400 ppm [4]: 0% | mortality at 24 µg/g [5]: 0% | mortality at 400 ppm [6]: 100% | mortality at 400 ppm [7]: 100%

CC(C)c1nccc(NC(=O)Cc2ccc(OCC(F)(F)F)cc2)n1 [Compound 30, 4-(2,2,2-trifluroethoxy)phenyl-N-(2-(1-methylethyl)-4-pyrimidinyl)acetamide]
mortality at 400 ppm [1]: 90% | mortality at 400 ppm [2]: 100% | mortality at 400 ppm [3]: 100% | mortality at 400 ppm [4]: 100% | mortality at 24 µg/g [5]: 100% | mortality at 400 ppm [6]: 100% | mortality at 400 ppm [7]: 80%

CC(C)c1nccc(NC(=O)Cc2ccc(Oc3ccc(F)cc3)cc2)n1 [Compound 31, 4-(4-fluorophenoxy)phenyl-N-(2-(1-methylethyl)-4-pyrimidinyl)acetamide]
mortality at 400 ppm [1]: 100% | mortality at 400 ppm [2]: 100% | mortality at 400 ppm [3]: 100% | mortality at 400 ppm [4]: 0% | mortality at 24 µg/g [5]: 0% | mortality at 400 ppm [6]: 100% | mortality at 400 ppm [7]: 100%

CCc1nccc(NC(=O)Cc2ccc(-c3ccccc3)cc2)n1 [Compound 40]
mortality at 400 ppm [1]: 40% | mortality at 400 ppm [2]: 20% | mortality at 400 ppm [3]: 60% | mortality at 400 ppm [6]: 0%

CCCCCc1ccc(CC(=O)Nc2ccnc(CC)n2)cc1 [Compound 41, 4-pentylphenyl-N-(2-ethyl-4-pyrimidinyl)acetamide]
mortality at 400 ppm [1]: 40% | mortality at 400 ppm [2]: 100% | mortality at 400 ppm [3]: 100% | mortality at 400 ppm [6]: 100%

CCc1nccc(NC(=O)Cc2ccc(OC(F)F)cc2)n1 [Compound 42, 4-difluromethoxy-N-(2-ethyl-4-pyrimidinyl)acetamide]
mortality at 400 ppm [1]: 0% | mortality at 400 ppm [2]: 40% | mortality at 400 ppm [3]: 100% | mortality at 400 ppm [6]: 100%

CCc1nccc(NC(=O)Cc2ccc(OCC(F)(F)C(F)F)cc2)n1 [Compound 43, 4-(2,2,3,3-tetrafluropropoxy)phenyl-N-(2-ethyl-4-pyrimidinyl)acetamide]
mortality at 400 ppm [1]: 60% | mortality at 400 ppm [2]: 60% | mortality at 400 ppm [3]: 100% | mortality at 400 ppm [6]: 100%

CCCCOc1ccc(CC(=O)Nc2ccnc(CC)n2)cc1 [Compound 44, 4-butoxyphenyl-N-(2-ethyl-4-pyrimidinyl)acetamide]
mortality at 400 ppm [1]: 0% | mortality at 400 ppm [2]: 100% | mortality at 400 ppm [3]: 100% | mortality at 400 ppm [6]: 90%

CCc1nccc(NC(=O)Cc2ccc(C(C)C)cc2)n1 [Compound 45, 4-(1-methylethyl)phenyl-N-(2-ethyl-4-pyrimidinyl)acetamide]
mortality at 400 ppm [1]: 0% | mortality at 400 ppm [2]: 100% | mortality at 400 ppm [3]: 100% | mortality at 400 ppm [6]: 100%

CCc1nccc(NC(=O)COc2ccc(C(C)C)cc2)n1 [Compound 46, 4-(1-methylethyl)phenoxy-N-(2-ethyl-4-pyrimidinyl)acetamide]
mortality at 400 ppm [1]: 0% | mortality at 400 ppm [2]: 0% | mortality at 400 ppm [3]: 0% | mortality at 400 ppm [6]: 0%

CCc1nccc(NC(=O)Cc2ccc(Oc3ccccc3)cc2)n1 [Compound 47, 4-phenoxyphenyl-N-(2-ethyl-4-pyrimidinyl)acetamide]
mortality at 400 ppm [1]: 40% | mortality at 400 ppm [2]: 100% | mortality at 400 ppm [3]: 100% | mortality at 400 ppm [6]: 100%

CCc1nccc(NC(=O)Cc2ccc(C(C)(C)C)cc2)n1 [Compound 48, 4-(1,1-dimethylethyl)phenyl-N-(2-ethyl-4-pyrimidinyl)acetamide]
mortality at 400 ppm [1]: 20% | mortality at 400 ppm [2]: 0% | mortality at 400 ppm [3]: 100% | mortality at 400 ppm [6]: 100%

CCc1nccc(NC(=O)Cc2ccc(Oc3ccc(C(C)=O)cc3)cc2)n1 [Compound 49, 4-(4-acetylphenoxy)phenyl-N-(2-ethyl-4-pyrimidinyl)acetamide]
mortality at 400 ppm [1]: 40% | mortality at 400 ppm [2]: 100% | mortality at 400 ppm [3]: 100% | mortality at 400 ppm [6]: 100%

CCc1nccc(NC(=O)Cc2ccc3ccccc3c2)n1 [Compound 50, 2-naphthyl-N-(2-ethyl-4-pyrimidinyl)acetamide]
mortality at 400 ppm [1]: 40% | mortality at 400 ppm [2]: 60% | mortality at 400 ppm [3]: 100% | mortality at 400 ppm [6]: 100%
